In ChEMBL document CHEMBL1201862, “PubChem BioAssay data set” (2004):
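Following 48 hours of exposure in 96-well plates, responses at five concentrations were used to interpolate endpoints linearly. At the GI50, growth is halved.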 Activity calls are given as the source filed them. No stated cut-off is given here; in the data, active = GI50 up to about 1.1 µM and inactive = higher.

What was measured:
Assay in all cases: NCI tumour cell line growth inhibition, 48 h
NCI-H23 = system: NCI-H23
A498 = system: A498
OVCAR-8 = system: OVCAR-8
SK-MEL-28 = system: SK-MEL-28
UACC-257 = system: UACC-257
HCT-116 = system: HCT-116
SF-295 = system: SF-295
HL-60 = system: HL-60
TK-10 = system: TK-10
HCC 2998 = system: HCC 2998
A549 = system: A549
Malme-3M = system: Malme-3M
MCF7 = system: MCF7
SK-OV-3 = system: SK-OV-3
HT-29 = system: HT-29
SW-620 = system: SW-620
RXF 393 = system: RXF 393
OVCAR-5 = system: OVCAR-5
ACHN = system: ACHN
M14 = system: M14
MOLT-4 = system: MOLT-4
NCI/ADR-RES = system: NCI/ADR-RES
HOP-92 = system: HOP-92
Hs-578T = system: Hs-578T
MDA-MB-435 = system: MDA-MB-435
COLO 205 = system: COLO 205
KM12 = system: KM12
NCI-H226 = system: NCI-H226
HOP-62 = system: HOP-62
K562 = system: K562
DU-145 = system: DU-145
UACC-62 = system: UACC-62
SF-539 = system: SF-539
SR = system: SR
NCI-H460 = system: NCI-H460
CCRF-CEM = system: CCRF-CEM
CAKI-1 = system: CAKI-1
IGROV-1 = system: IGROV-1
HCT-15 = system: HCT-15
BT-549 = system: BT-549
PC-3 = system: PC-3
SNB-19 = system: SNB-19
MDA-N = system: MDA-N
786-0 = system: 786-0
MDA-MB-231 = system: MDA-MB-231
EKVX = system: EKVX
UO-31 = system: UO-31
RPMI-8226 = system: RPMI-8226
LOX IMVI = system: LOX IMVI
NCI-H522 = system: NCI-H522
U-251 = system: U-251
SF-268 = system: SF-268

Compound: CC(O)(P(=O)(O)O)P(=O)(O)OCC(O)CN1CCOCC1 (configuration not stated)
- GI50 (NCI-H23): > 100 µM (inactive)
- GI50 (A498): > 100 µM (inactive)
- GI50 (OVCAR-8): > 100 µM (inactive)
- GI50 (SK-MEL-28): > 100 µM (inactive)
- GI50 (UACC-257): > 100 µM (inactive)
- GI50 (HCT-116): > 100 µM (inactive)
- GI50 (SF-295): > 100 µM (inactive)
- GI50 (HL-60): > 100 µM (inactive)
- GI50 (TK-10): > 100 µM (inactive)
- GI50 (HCC 2998): > 100 µM (inactive)
- GI50 (A549): > 100 µM (inactive)
- GI50 (Malme-3M): > 100 µM (inactive)
- GI50 (MCF7): > 100 µM (inactive)
- GI50 (SK-OV-3): > 100 µM (inactive)
- GI50 (HT-29): > 100 µM (inactive)
- GI50 (SW-620): > 100 µM (inactive)
- GI50 (RXF 393): > 100 µM (inactive)
- GI50 (OVCAR-5): > 100 µM (inactive)
- GI50 (ACHN): > 100 µM (inactive)
- GI50 (M14): > 100 µM (inactive)
- GI50 (MOLT-4): > 100 µM (inactive)
- GI50 (NCI/ADR-RES): > 100 µM (inactive)
- GI50 (HOP-92): > 100 µM (inactive)
- GI50 (Hs-578T): > 100 µM (inactive)
- GI50 (MDA-MB-435): > 100 µM (inactive)
- GI50 (COLO 205): > 100 µM (inactive)
- GI50 (KM12): > 100 µM (inactive)
- GI50 (NCI-H226): > 100 µM (inactive)
- GI50 (HOP-62): > 100 µM (inactive)
- GI50 (K562): > 100 µM (inactive)
- GI50 (DU-145): > 100 µM (inactive)
- GI50 (UACC-62): > 100 µM (inactive)
- GI50 (SF-539): 95.1 µM (inactive)
- GI50 (SR): > 100 µM (inactive)
- GI50 (NCI-H460): > 100 µM (inactive)
- GI50 (CCRF-CEM): > 100 µM (inactive)
- GI50 (CAKI-1): > 100 µM (inactive)
- GI50 (IGROV-1): > 100 µM (inactive)
- GI50 (HCT-15): > 100 µM
- GI50 (BT-549): > 100 µM (inactive)
- GI50 (PC-3): > 100 µM (inactive)
- GI50 (SNB-19): > 100 µM (inactive)
- GI50 (MDA-N): > 100 µM (inactive)
- GI50 (786-0): > 100 µM (inactive)
- GI50 (MDA-MB-231): > 100 µM (inactive)
- GI50 (EKVX): > 100 µM (inactive)
- GI50 (UO-31): > 100 µM (inactive)
- GI50 (RPMI-8226): > 100 µM (inactive)
- GI50 (LOX IMVI): > 100 µM (inactive)
- GI50 (NCI-H522): > 100 µM (inactive)
- GI50 (U-251): > 100 µM (inactive)
- GI50 (SF-268): > 100 µM (inactive)
